{"source": "patent US6884907B2", "about": "“Hydroxamic acids and acyl hydroxamines as naaladase inhibitors” (Guilford Pharmaceuticals Inc., priority 2001, dated 2005)", "key": {"[1]": {"system": "rats with transected optic nerve", "test": "Optic nerve transection (optic nerve fiber counting)", "assay_type": "in vivo, Brown Norway rats (Rattus norvegicus)", "conditions": "2 weeks after transection", "protocol": "All experiments complied with the Association for Research in Vision and Ophthalmology Statement for the Use of Animals in Ophthalmic and Vision Research. 82 male Brown Norway rats (Rattus norvegicus), each weighing approximately 250 gm, were treated using procedures approved by the Animal Care Committee of the Johns Hopkins University School of Medicine. The rats were housed with a 12 hour light/12 hour dark cycle and fed ad libitum.\nOPTIC NERVE TRANSECTION: The optic nerve was transected unilaterally in 26 rats under intraperitoneal pentobarbital anesthesia. The conjunctiva was opened with scissors and the optic nerve exposed by traction on extraocular muscles. […]\nThe area of the optic nerve cross-section was measured by outlining its outer border at 10× magnification on an image analysis system (Universal Imaging Corp., Westchester, Pa.) with Synsys digital camera and Metamorph software. Three area measurements were taken and the mean value was determined. […] These were edited to eliminate non-neural objects and the size of each axon internal to the myelin sheath (its minimum diameter) and the density of axons/square mm were calculated for each image and nerve. […] The number of axons counted among the 10 images was an approximately 20% sample of the 80-90,000 axons in normal rat nerves. […]"}, "[2]": {"system": "STZ-induced diabetic rats", "test": "Neuropathic pain in STZ model (thermal nociception, Hargreaves apparatus)", "assay_type": "in vivo, Male Sprague-Dawley rats", "conditions": "10 mg/kg i.p. daily, treatment started 45 days post-STZ, FIGS. 7A and 7B", "protocol": "Male Sprague-Dawley rats (200-225 g) were rendered diabetic by intravenous administration of streptozotocin (“STZ”, 70 mg/kg in phosphate buffered saline). Diabetic animals were divided into five groups: one group receiving Compound A (10 mg/kg or 1 mg/kg), Compound D (10 mg/kg or 1 mg/kg) or vehicle. Another group of animals (non-STZ treated) served as non-diabetic controls. Drug/vehicle treatment was started in diabetic animals 45 days post-STZ administration. STZ-induced diabetic rats were tested for sensitivity to a heat source as soon as blood glucose levels rose to 320 mg/dl or above (30 days post STZ). The rats were then acclimated to a Hargreaves apparatus and thermal nociception was monitored using an infrared heat source directed into the dorsal surface of the hindpaw, and the time taken for the animal to remove its paw noted to the nearest 0.1 seconds (see Hargreaves et al., supra, for detailed experimental method). The intensity of the beam source was adjusted such that the mean latency for control animals (non-STZ treated) was approximately 10 seconds. Each animal was tested 8 times and the mean difference score (between mean non-diabetic control latency and mean diabetic latency) are graphically presented in FIGS. 7A and 7B."}, "STZ-diabetic animals": {"system": "STZ-diabetic animals", "test": "Diabetic neuropathy in STZ model (nerve conduction velocity)", "assay_type": "in vivo, rats", "conditions": "10 mg/kg daily", "protocol": "Motor and sensory nerve conduction velocity was also measured in STZ-diabetic animals after 4, 8 and 12 weeks of treatment (see De Koning et al., supra, for a description of the experimental method). Briefly, stimulating needle electrodes were inserted close to the sciatic and tibial nerves with recording electrodes being placed subcutaneously over the distal foot muscles, in anesthetized rats."}, "BB/W diabetic rats": {"system": "BB/W diabetic rats", "test": "Progression of neuropathic pain and nerve conduction deficits in BB/W model", "assay_type": "in vivo, Male BB/W rats", "text": "Male BB/W rats (BRI, Mass) spontaneously develop a cell mediated autoimmune destruction of pancreatic B cells, resulting in onset of insulin-dependent (Type I) diabetes (Guberski 1994). […] This renders them valuable for experimental trials of new compounds for future treatments of this major disorder. In the present study, Compound D and Compound A were examined for their ability to alter the progression of diabetic neuropathy. The rats received daily injection of Compound D or Compound A (10 mg/kg i.p.) or vehicle, starting at the onset of diabetes (hyperglycemia) and up to 6 months thereafter. Another group of non-diabetic rats also receiving vehicle were tested. All animals were continuously monitored for body weight, urine volume, blood sugar and glycated haemoglobin. In the first month of the study, all animals were tested for thermal nociception in a Hargreaves apparatus, weekly. After the first month this was done biweekly and then monthly. The testing consists of directing an infrared heat source onto the dorsal surface of the rat hindpaw and noting the time taken for the animal to remove its paw (see Hargreaves et al., supra, for a description of the experimental method). Each animal was tested 8 times and the mean withdrawal latency noted.\nNerve conduction velocity was also measured every two weeks through the first eight weeks of treatment and every month thereafter through to the six months of treatment (see De Koning et al., Peptides, Vol. 8, No. 3, pp. 415-22 (1987) for a description of the experimental method). […] This was apparent starting at 8 weeks of treatment and persisted to a similar degree through to the six month termination point of the study."}, "transgenic G1H mice": {"system": "transgenic G1H mice", "test": "Onset of ALS in SOD transgenic mice model of FALS", "assay_type": "in vivo", "protocol": "The effect of NAALADase inhibitors on the onset of ALS was tested using the superoxide dismutase (“SOD”) transgenic mice model of familial Amyotrophic Lateral Sclerosis (“FALS”), which is detailed in Gurney, M., Annals of Neurology (1996) 39:147-157, and otherwise well known in the art. One month old transgenic G1H mice were treated with daily intraperitoneal injections of a vehicle (50 mM HEPES-buffered saline) or a NAALADase inhibitor (50 mg/kg of Compound A). Clinical symptoms of the mice were monitored daily. The onset of clinical disease was scored by examining each mouse for its shaking of limbs when suspended in the air by its tail, cross spread of spinal reflexes, hindlimb paralysis, body weight and wheel running activity."}, "[3]": {"system": "transgenic HD mice (N171-82Q)", "test": "Transgenic mouse model of Huntington's disease: survival", "assay_type": "in vivo", "protocol": "The effects of Compound B and vehicle on the survival of transgenic HD mice (N171-82Q) were evaluated. Thirteen mice (six male and seven female) were assigned to the Compound B treatment group, and fourteen mice (six male and eight female) were assigned to the vehicle treatment group. Treatment was continued until all the mice died."}, "[4]": {"system": "Transgenic HD mice of the N171-82Q strain", "test": "Transgenic mouse model of Huntington's disease: behavioral testing (rotarod, locomotion)", "assay_type": "in vivo", "protocol": "Transgenic HD mice of the […]-[…] strain and non-transgenic littermates were treated with NAALADase inhibitor Compound B (30 mg/kg) or a vehicle from 10 weeks of age. The mice were placed on a rotating rod (“rotarod”). The length of time at which the mouse fell off the rotarod was recorded as a measure of motor coordination. […] The treatment with Compound B had no effect on the rotarod performance of normal non-HD mice. The total distance traveled by the mice was also recorded as a measure of overall locomotion."}, "TGF-β [5]": {"system": "TGF-β", "test": "Effect of NAALADase inhibition on TGF-β in in vitro ischemia model", "assay_type": "cell-based", "conditions": "ischemic cell cultures", "protocol": "A NAALADase inhibitor, Compound C, was added to ischemia cell cultures to determine its effect on TGF-β levels during stroke.\nTGF-β neutralizing antibodies were then added to the ischemic cell cultures."}, "[6]": {"system": "rats with sciatic nerve ligation", "test": "Neuropathic pain in chronic constriction injury (CCI) model", "assay_type": "in vivo", "conditions": "50 mg/kg i.p. daily starting 10 days post surgery, versus vehicle, FIG. 8", "protocol": "Sciatic nerve ligation, consisting of 4 ligatures tied loosely around the sciatic nerve at 1 mm intervals proximal to the nerve trifurcation, was performed on rats. […] The rats were habituated to a Hargreaves apparatus. An infrared heat source was directed onto the […] surface of each rat's hindpaws and the time taken for the rat to withdraw its paws was noted. The difference in scores between the latency of the response for the paw on the operated side versus the paw on the unoperated control side was determined. The rats received either Compound C (50 mg/kg i.p. daily) or a vehicle starting 10 days post surgery. […] Normal (unoperated) rats had approximately equal latencies for both paws. This effect was significant starting at 11 days of drug treatment and persisted through to the end of the study (for 21 days of daily dosing)."}, "TGF-β [7]": {"system": "TGF-β", "test": "Effect of NAALADase inhibition on TGF-β in in vivo ischemia model (MCAO)", "conditions": "MCAO rats", "text": "The effect of TGF-β neutralizing antibodies on the neuroprotective effect of Compound C was also studied in rats following MCAO."}}}
{"smiles": "O=C(O)CCC(CP(=O)(O)Cc1c(F)c(F)c(F)c(F)c1F)C(=O)O", "note": "(stereo not shown) [Compound A, 2-[[(2,3,4,5,6-pentafluorobenzyl)hydroxyphosphinyl]methyl]pentanedioic acid]", "values": [{"measurement": "remaining axons relative to saline-treated rats", "setting": "[1]", "value": 3, "unit": "times"}, {"measurement": "hyperalgesic response (withdrawal latency difference score)", "setting": "[2]", "value": "completely reversed"}, {"measurement": "sensory nerve conduction velocity", "setting": "STZ-diabetic animals; after 8 weeks, FIG. 9B", "value": "significant improvement"}, {"measurement": "motor nerve conduction velocity", "setting": "STZ-diabetic animals; after 12 weeks, FIG. 9A", "value": "significant improvement"}, {"measurement": "nerve conduction velocity", "setting": "BB/W diabetic rats; 10 mg/kg daily, versus diabetic vehicle controls, from 8 weeks to six months, FIG. 12", "value": "significantly less severe nerve conduction deficits"}, {"measurement": "withdrawal latency", "setting": "BB/W diabetic rats; 10 mg/kg i.p. daily, versus diabetic vehicle-treated rats, from 4 weeks through six months of treatment, FIG. 11", "value": "longer withdrawal latencies"}, {"measurement": "Difference in disease onset (treated versus vehicle)", "setting": "transgenic G1H mice; Study 1, 50 mg/kg daily i.p.", "value": 32}, {"measurement": "Disease Onset For Compound A Treated Mice", "setting": "transgenic G1H mice; Study 1, 50 mg/kg daily i.p., vehicle 189", "value": 221, "unit": "days"}, {"measurement": "Difference in disease onset (treated versus vehicle)", "setting": "transgenic G1H mice; Study 2, 50 mg/kg daily i.p.", "value": 25}, {"measurement": "Disease Onset For Compound A Treated Mice", "setting": "transgenic G1H mice; Study 2, 50 mg/kg daily i.p., vehicle 141", "value": 166, "unit": "days"}]}
{"smiles": "O=C(O)CCC(CCCS)C(=O)O", "note": "(stereo not shown) [Compound B, 2-(3-sulfanylpropyl)pentanedioic acid]", "values": [{"measurement": "median survival time", "setting": "[3]; all treated transgenic HD mice, vehicle 158.5 days, p-value=0.07, FIG. 33", "value": 184, "unit": "days"}, {"measurement": "survival time", "setting": "[3]; female transgenic HD mice versus vehicle, p-value=0.03, FIG. 35", "value": "significantly prolonged survival time"}, {"measurement": "remaining axons relative to saline-treated rats", "setting": "[1]", "value": "twice"}, {"measurement": "rotarod performance", "setting": "[4]; normal non-HD mice, 30 mg/kg", "value": "no effect"}, {"measurement": "rotarod performance (time on rotarod)", "setting": "[4]; transgenic HD mice, 30 mg/kg from 10 weeks of age, versus vehicle, FIG. 31", "value": "stayed longer on the rotarod"}]}
{"smiles": "O=C(O)CCC(CP(=O)(O)O)C(=O)O", "note": "(stereo not shown) [Compound C, 2-(phosphonomethyl)pentanedioic acid]", "values": [{"measurement": "TGF-β1 concentration", "setting": "TGF-β [5]; FIG. 1", "value": "increased concentrations"}, {"measurement": "TGF-β2 concentration", "setting": "TGF-β [5]; FIG. 2", "value": "increased concentrations"}, {"measurement": "neuroprotective effect in presence of TGF-β neutralizing antibodies", "setting": "TGF-β [5]; FIG. 3", "value": "blocked the neuroprotective effect"}, {"measurement": "neuroprotective effect in presence of FGF antibody", "setting": "TGF-β [5]; FIG. 4", "value": "did not block the neuroprotective effect"}, {"measurement": "difference scores between the two paws (withdrawal latency)", "setting": "[6]", "value": "dramatically normalized"}, {"measurement": "neuroprotective effect in presence of TGF-β neutralizing antibodies", "setting": "TGF-β [7]; FIG. 5", "value": "significantly attenuated the neuroprotective effect"}, {"measurement": "TGF-β1 levels", "setting": "TGF-β [7]; during occlusion and reperfusion, microdialysis, FIG. 6", "value": "significant rise"}]}
